In assay [1] the test system is mouse long-term hematopoietic stem cells. As to the kind of experiment: Reproducibility and concentration dependence test: 1-week culture of sorted Hoxb5-tri-mCherry mouse long-term hematopoietic stem cells, flow cytometry. It counts as cell-based. The settings on record: day 7 of culture, n=2. A digest of the protocol:
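Hoxb5-tri-mCherry+ LT-HSCs (Lin−c-Kit+Sca-1+Flk2−CD34−/lo CD150+) were sorted from mouse bone marrow at 10 cells/well into StemSpan SFEM with SCF and TPO. Cells were cultured with compound for 1 week at 37°C, 5% CO2. Flow cytometry then measured KLS and mCherry+ fractions and cell counts.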
For orientation: In flow cytometry, cells or beads pass a laser one at a time.

Assay [2] shares this test system. The experiment in a line: Combination test with UM171 on mouse long-term hematopoietic stem cells. It counts as cell-based. The following applies: for KLS-positive rate / Viable cell count / mCherry-positive rate: n=2. The method, then:
The cells after classification were seeded in a 96-well plate. A cell culture medium was prepared by adding Stem Cell Factor (SCF, manufactured by PeproTech, Inc.) and Thrombopoietin (TPO, manufactured by PeproTech, Inc.) to StemSpan SFEM culture medium (manufactured by […] Technologies Inc.) and added in advance to a cell culture 96-well plate (manufactured by BD Biosciences) at 100 μL/well, and the cells sorted with the FACS Aria II cell sorter (BD Biosciences) were then seeded at 10 cells/well.
The test compounds each in the form of 10 mM DMSO solution were diluted with the cell culture medium to a final concentration of 1 μM, and added to the cells seeded after classification through medium exchange to a final volume of 200 μL/well. Thereafter, the cells were cultured in a CO2 incubator under conditions of 37° C. and 5% CO2 for 1 week.
After culture, the cells were stained with the antibodies for the surface markers c-Kit and Sca-1, Ter-119, B220, CD3, CD4, CD8a, Gr-1, and CD11b, and the ratio and post-growth cell count of a KLS fraction (c-Kit^+, Lin^−, Sca-1^+) or an mCherry-positive fraction given with use of a FACS Aria II cell sorter were analyzed by using FlowJo (BD Biosciences). The mCherry-positive fraction is a cell fraction expressing the Hoxb5 gene, and the KLS fraction is a cell fraction being c-Kit-positive, Lin-negative, and Sca-1-positive, and includes hematopoietic stem cells and multipotent progenitor cells as main components.
A DMSO solution of artemether was adjusted with the cell culture medium to three final concentrations (0.1 μM, 1 μM, 10 μM), and a DMSO solution of UM171 was adjusted with the cell culture medium to four final concentrations (0.1 μM, 0.3 μM, 1 μM, 3 μM), and cell culture was performed at n=2 by the same method as in Example 1. The cell culture and evaluation criteria were the same as those in Example 2.

The mark [3] stands for this setting: UM171 0.1 μM alone (DMSO, no artemether).
The mark [4] stands for this setting: UM171 0.3 μM alone (DMSO, no artemether).
The mark [5] stands for this setting: UM171 1 μM alone (DMSO, no artemether).
Setting [6] is: UM171 3 μM alone (DMSO, no artemether).

For `C[C@@H]1CC[C@H]2[C@@H](C)C(=O)O[C@@H]3O[C@@]4(C)CC[C@@H]1[C@]32OO4` [Example 1-33, artemisinin, reference compound], the KLS-positive rate in assay [1] (Table 3, compound 0.1 μM) is recorded as 33.2%; in assay [1] (Table 3, compound 0.3 μM), 18.2%; in assay [1] (Table 3, compound 1 μM) it was 46.85%; in assay [1] (Table 3, compound 3 μM) it was 50.8%; in assay [1] (Table 3, compound 10 μM), 52%; in assay [1] (Table 4, compound 0.1 μM), 20.2%. The KLS-positive rate in assay [1] (Table 4, compound 0.3 μM) is 11.2%; in assay [1] (Table 4, compound 1 μM), 20.3%; in assay [1] (Table 4, compound 3 μM), 26.1%; in assay [1] (Table 4, compound 10 μM), 16.1%. Also, the Viable cell count in assay [1] (Table 3, compound 0.1 μM) is reported as 445.5 cell; in assay [1] (Table 3, compound 0.3 μM), 1020 cell; in assay [1] (Table 3, compound 1 μM), 728 cell; in assay [1] (Table 3, compound 3 μM), 229 cell; in assay [1] (Table 3, compound 10 μM), 282.5 cell; in assay [1] (Table 4, compound 0.1 μM), 268.5 cell. Further, the Viable cell count came out at 309.5 cell in assay [1] (Table 4, compound 0.3 μM); 268.0 cell in assay [1] (Table 4, compound 1 μM); 85.0 cell in assay [1] (Table 4, compound 3 μM); 178.0 cell in assay [1] (Table 4, compound 10 μM). The mCherry-positive rate in assay [1] (Table 3, compound 0.1 μM) worked out at 49.25%; in assay [1] (Table 3, compound 0.3 μM) it was 28.15%; in assay [1] (Table 3, compound 1 μM), 60.85%; in assay [1] (Table 3, compound 3 μM), 81.3%; in assay [1] (Table 3, compound 10 μM), 80%; in assay [1] (Table 4, compound 0.1 μM), 28.1%. Also, the mCherry-positive rate in assay [1] (Table 4, compound 0.3 μM) is listed as 23.5%; in assay [1] (Table 4, compound 1 μM), 56.8%; in assay [1] (Table 4, compound 3 μM), 81.8%; in assay [1] (Table 4, compound 10 μM), 78.8%.

On to `C[C@@H]1CC[C@H]2[C@@H](C)C(=O)O[C@@H]3O[C@@]4(C)CC[C@@H]1[C@]32O4` [Example 1-34, (3R,3aS,6R,6aS,9S,10aS,10bR)-3,6,9-Trimethyloctahydro-10aH-9,10b-epoxypyrano[4,3,2-jk][2]benzoxepin-2(3H)-one], for which the KLS-positive rate is on record as 77.3% in assay [1] (Table 4, compound 0.1 μM); 28.4% in assay [1] (Table 4, compound 0.3 μM); 21.8% in assay [1] (Table 4, compound 1 μM); 27.7% in assay [1] (Table 4, compound 3 μM); 27.5% in assay [1] (Table 4, compound 10 μM). The Viable cell count is listed as 136.5 cell in assay [1] (Table 4, compound 0.1 μM); 389.0 cell in assay [1] (Table 4, compound 0.3 μM); 713.5 cell in assay [1] (Table 4, compound 1 μM); 268.0 cell in assay [1] (Table 4, compound 3 μM); 70.0 cell in assay [1] (Table 4, compound 10 μM). Besides, the mCherry-positive rate in assay [1] (Table 4, compound 0.1 μM) is listed as 11.7%; in assay [1] (Table 4, compound 0.3 μM) it was 18.3%; in assay [1] (Table 4, compound 1 μM), 15.2%; in assay [1] (Table 4, compound 3 μM), 14.6%; in assay [1] (Table 4, compound 10 μM) it was 0.4%.

On to `CO[C@@H]1O[C@@H]2O[C@@]3(C)CC[C@H]4[C@H](C)CC[C@@H]([C@H]1C)[C@@]24OO3` [Example 1-35, (3R,5aS,6R,8aS,9R,10R,12R,12aR)-10-Methoxy-3,6,9-trimethyldecahydro-12H-3,12-epoxypyrano[4,3-j][1,2]benzodioxepine], for which the KLS-positive rate in assay [1] (Table 4, compound 0.1 μM) is given as 13.8%; in assay [1] (Table 4, compound 0.3 μM), 19.9%; in assay [1] (Table 4, compound 1 μM) it was 17.9%; in assay [1] (Table 4, compound 3 μM), 48.7%; in assay [1] (Table 4, compound 10 μM) it was 46.7%. Also, the Viable cell count was found to be 763.5 cell in assay [1] (Table 4, compound 0.1 μM); 544.5 cell in assay [1] (Table 4, compound 0.3 μM); 554.0 cell in assay [1] (Table 4, compound 1 μM); 104.5 cell in assay [1] (Table 4, compound 3 μM); 121.5 cell in assay [1] (Table 4, compound 10 μM). The mCherry-positive rate in assay [1] (Table 4, compound 0.1 μM) is on record as 3.0%; in assay [1] (Table 4, compound 0.3 μM), 48.5%; in assay [1] (Table 4, compound 1 μM), 74.0%; in assay [1] (Table 4, compound 3 μM), 92.2%; in assay [1] (Table 4, compound 10 μM), 99.6%.

Turning to `Cn1nnc(-c2ccc3c(c2)[nH]c2nc(Cc4ccccc4)nc(N[C@H]4CC[C@H](N)CC4)c23)n1` [UM171, (1r,4r)-N1-(2-benzyl-7-(2-methyl-2H-tetrazol-5-yl)-9H-pyrimido[4,5-b]indol-4-yl)cyclohexane-1,4-diamine], the KLS-positive rate is reported as 41.0% in assay [2] (setting [3]), 71.6% in assay [2] (setting [4]), 98.0% in assay [2] (setting [5]) and 82.2% in assay [2] (setting [6]). Moreover, the Viable cell count in assay [2] (setting [3]) stood at 508.0 cell; in assay [2] (setting [4]), 281.0 cell; in assay [2] (setting [5]), 24.5 cell; in assay [2] (setting [6]), 82.5 cell. The mCherry-positive rate in assay [2] (setting [3]) is 4.7%; in assay [2] (setting [4]) it was 17.1%; in assay [2] (setting [5]), 38.9%; in assay [2] (setting [6]), 16.2%. Also, the “Effect of culture with artemether and UM171 together on mCherry-positive and KLS-positive cell ratios” value in assay [2] (compared with any one of the substances alone) was “combinational effect”.

(Values after patent US20230094952A1, “Method for Culturing Hematopoietic Stem Cells” (Sumitomo Pharma Co., Ltd., priority 2019, published 2023).)
